Laboratory results taken from patent US6881741B2 (ViroChem Pharma Inc., priority 2001, dated 2005).

The compounds below were run against recombinant HCV NS5B (HCV RNA-dependent RNA polymerase) (Hepatitis C virus genotype 1b, UniProt P26663) (assay: biochemical). Details: HCV polymerase activity, list of compounds of Example 27; read-out: IC50 (polymerase activity).
Chain of recombinant HCV NS5B (HCV RNA-dependent RNA polymerase) (P26663 2420-3010 limits assumed): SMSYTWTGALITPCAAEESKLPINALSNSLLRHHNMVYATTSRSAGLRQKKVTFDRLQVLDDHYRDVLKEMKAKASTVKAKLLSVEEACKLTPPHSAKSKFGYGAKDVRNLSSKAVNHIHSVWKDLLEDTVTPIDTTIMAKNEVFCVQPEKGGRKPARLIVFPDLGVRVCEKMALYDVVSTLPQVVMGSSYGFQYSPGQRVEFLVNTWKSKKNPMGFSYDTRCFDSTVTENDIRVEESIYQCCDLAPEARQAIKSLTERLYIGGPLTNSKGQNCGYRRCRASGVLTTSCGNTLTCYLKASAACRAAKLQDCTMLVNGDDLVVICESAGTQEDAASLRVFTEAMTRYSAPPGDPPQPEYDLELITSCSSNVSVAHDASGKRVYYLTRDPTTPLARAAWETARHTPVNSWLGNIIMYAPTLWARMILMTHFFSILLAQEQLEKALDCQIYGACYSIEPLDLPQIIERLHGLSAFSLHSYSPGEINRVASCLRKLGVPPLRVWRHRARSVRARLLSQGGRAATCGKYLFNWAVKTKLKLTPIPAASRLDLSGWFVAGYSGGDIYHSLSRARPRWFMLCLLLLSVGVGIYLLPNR

SMILES | IC50
O=C(O)c1sc(-c2ccccc2)cc1N(Cc1ccc(F)cc1F)C(=O)C1CCCCC1 [Compound 490, 3-[CYCLOHEXANECARBONYL-(2,4- DIFLUORO-BENZYL)-AMINO]-5-PHENYL- THIOPHENE-2-CARBOXYLIC ACID] | < 5 µM
O=C(O)c1sc(-c2ccccc2)cc1N(CC1CCNCC1)C(=O)c1ccc(Cl)cc1Cl [Compound 519, 3-[(2,4-DICHLORO-BENZOYL)-PIPERIDIN- 4-YLMETHYL-AMINO]-5-PHENYL- THIOPHENE-2-CARBOXYLIC ACID] | < 5 µM
O=C(O)c1sc(-c2ccccc2)cc1N(Cc1ccc(C(F)(F)F)cc1)C(=O)C1CCC1 [Compound 414, 3-[CYCLOBUTANECARBONYL-(4- TRIFLUOROMETHYL-BENZYL)-AMINO]-5- PHENYL-THIOPHENE-2-CARBOXYLIC ACID] | 5 to 20 µM
O=C(NC1CCC(N(C(=O)c2ccc(Cl)cc2Cl)c2cc(-c3ccccc3)sc2C(=O)O)CC1)OCc1ccccc1 (stereo not drawn) [Compound 515, 3-[(4-BENZYLOXYCARBONYLAMINO- CYCLOHEXYL)-(2,4-DICHLORO- BENZOYL)-AMINO]-5-PHENYL- THIOPHENE-2-CARBOXYLIC ACID] | < 5 µM
O=C(O)c1sc(-c2ccccc2)cc1N(Cc1ccccc1Cl)C(=O)C1CC1 [Compound 423, 3-[(2-CHLORO-BENZYL)- CYCLOPROPANECARBONYL-AMINO]-5- PHENYL-THIOPHENE-2-CARBOXYLIC ACID] | > 20 µM
NC1CCC(N(C(=O)c2ccc(Cl)cc2Cl)c2cc(-c3ccccc3)sc2C(=O)O)CC1 (stereo not drawn) [Compound 528, 4-[(2-CARBOXY-5-PHENYL-THIOPHEN-3- YL(-(2,4-DICHLORO-BENZOYL)-AMINO]- CYCLOHEXYL-AMMONIUM; TRIFLUORO- ACETATE] | < 5 µM
CC1CCC(C(=O)N(c2cc(-c3ccc(C(F)(F)F)cc3)sc2C(=O)O)C(C)C)CC1 (stereo not drawn) [Compound 575, 3-[ISOPROPYL-(4-METHYL- CYCLOHEXANECARBONYL)-AMINO]-5-(4- TRIFLUOROMETHYL-PHENYL)- THIOPHENE-2-CARBOXYLIC ACID] | < 5 µM
CC(C)N(C(=O)c1ccc(Cl)cc1Cl)c1c(C(=O)O)sc(-c2ccccc2)c1F [Compound 542, 3-[(2,4-DICHLORO-BENZOYL)- ISOPROPYL-AMINO]-4-FLUORO-5- PHENYL-THIOPHENE-2-CARBOXYLIC ACID] | 5 to 20 µM
CC(C)CC(=O)N(Cc1ccc(Cl)cc1)c1cc(-c2ccccc2)sc1C(=O)O [Compound 458, 3-[(4-CHLORO-BENZYL)-(3-METHYL- BUTYRYL)-AMINO]-5-PHENYL- THIOPHENE-2-CARBOXYLIC ACID] | 5 to 20 µM

Same assay, conditions: related polymerase activity (Example 27 list); read-out: IC50

SMILES | IC50
Cc1ccc(C(=O)N(C)c2cc(-c3ccccc3Cl)sc2C(=O)O)cc1 [Compound 207, 5-(2-CHLORO-PHENYL)-3-[METHYL-(4-METHYL-BENZOYL)-AMINO]-THIOPHENE-2-CARBOXYLIC ACID] | 5 to 20 µM
Cc1ccc(C(=O)N(C)c2cc(-c3ccccc3C)sc2C(=O)O)cc1 [Compound 267, 3-[METHYL-(4-METHYL-BENZOYL)-AMINO]-5-O-TOLYL-THIOPHENE-2-CARBOXYLIC ACID] | < 5 µM
CC1CCC(C(=O)N(c2cc(-c3cccc([N+](=O)[O-])c3)sc2C(=O)O)C(C)C)CC1 (stereo not drawn) [Compound 383, 3-[ISOPROPYL-(4-METHYL- CYCLOHEXANECARBONYL)-AMINO]-5-(3- NITRO-PHENYL)-THIOPHENE-2- CARBOXYLIC ACID] | < 5 µM
C=CCN(C(=O)CCCCC)c1cc(-c2ccccc2)sc1C(=O)O [Compound 397, 3-(ALLYL-HEXANOYL-AMINO)-5-PHENYL- THIOPHENE-2-CARBOXYLIC ACID] | 5 to 20 µM
Cc1ccc(C(=O)N(C)c2cc(-c3ccccc3)sc2C(=O)O)c(C)c1 [Compound 131, 3-[(2,4-DIMETHYL-BENZOYL)-METHYL-AMINO]-5-PHENYL-THIOPHENE-2 CARBOXYLIC ACID] | < 5 µM
Cc1ccccc1S(=O)(=O)Nc1cc(-c2cccc3cccnc23)sc1C(=O)O [Compound 61, 5-QUINOLIN-8-YL-3-(TOLUENE-2-SULFONYLAMINO)-THIOPHENE-2-CARBOXYLIC ACID] | > 20 µM
CN(C(=O)c1ccc(C(F)(F)F)c(F)c1F)c1cc(-c2ccccc2)sc1C(=O)O [Compound 278, 3-[(2,3-DIFLUORO-4-TRIFLUOROMETHYL-BENZOYL)-METHYL-AMINO]-5-PHENYL-THIOPHENE-2-CARBOXYLIC ACID] | 5 to 20 µM
Cc1ccc(C(=O)N(Cc2ccccc2)c2cc(-c3ccccc3)sc2C(=O)O)cc1 [Compound 340, 3-[BENZYL-(4-METHYL-BENZOYL)- AMINO]-5-PHENYL-THIOPHENE-2- CARBOXYLIC ACID] | < 5 µM
CC(C)(C)OC(=O)N1CCC(N(C(=O)c2ccc(Cl)cc2Cl)c2cc(-c3ccccc3)sc2C(=O)O)CC1 [Compound 365, 4-[(2-CARBOXY-5-PHENYL-THIOPHEN-3- YL)-(2,4-DICHLORO-BENZOYL)-AMINO]- PIPERIDINE-1-CARBOXYLIC ACID #TERT!-BUTYL ESTER] | < 5 µM
Cc1ccc(C(=O)N(c2cc(-c3ccccc3)sc2C(=O)O)C(C)C)c(Br)c1 [Compound 309, 3-[(2-BROMO-4-METHYL-BENZOYL)- ISOPROPYL-AMINO]-5-PHENYL- THIOPHENE-2-CARBOXYLIC ACID] | < 5 µM
Cc1cc(Cl)ccc1S(=O)(=O)Nc1cc(-c2ccccc2)sc1C(=O)O [Compound 372, 3-(4-CHLORO-2-METHYL- BENZENESULFONYLAMINO)-5-PHENYL- THIOPHENE-2-CARBOXYLIC ACID] | < 5 µM
Cc1ccc(C(=O)N(C)c2cc(-c3cccc(F)c3)sc2C(=O)O)cc1 [Compound 213, 5-(3-FLUORO-PHENYL)-3-[METHYL-(4-METHYL-BENZOYL)-AMINO]-THIOPHENE-2-CARBOXYLIC ACID] | < 5 µM
Cc1ccc(S(=O)(=O)Nc2cc(-c3ccc(C#N)cc3)sc2C(=O)O)cc1 [Compound 290, 5-(4-CYANO-PHENYL)-3-(TOLUENE-4-SULFONYLAMINO)-THIOPHENE-2-CARBOXYLIC ACID] | 5 to 20 µM
Cc1ccc(C(=O)N(C)c2cc(-c3cccc(O)c3)sc2C(=O)O)cc1 [Compound 273, 5-(3-HYDROXY-PHENYL)-3-[METHYL-(4-METHYL-BENZOYL)-AMINO]-THIOPHENE-2-CARBOXYLIC ACID] | < 5 µM
Cc1ccccc1S(=O)(=O)Nc1cc(-c2ccc(-c3ccc(Br)cc3)cc2)sc1C(=O)O [Compound 124, 5-(4′-BROMO-BIPHENYL-4-YL)-3-(TOLUENE-2-SULFONYLAMINO)-THIOPHENE-2-CARBOXYLIC ACID] | < 5 µM
O=C(O)c1sc(-c2ccccc2)cc1N(Cc1ccc(-c2ccc(F)c(Cl)c2)s1)C(=O)c1ccc(Cl)cc1Cl [Compound 111, 3-[[5-(3-CHLORO-4-FLUORO-PHENYL)-THIOPHEN-2-YLMETHYL]-(2,4-DICHLORO-BENZOYL)-AMINO]-5-PHENYL-THIOPHENE-2-CARBOXYLIC ACID] | < 5 µM
Cc1ccccc1S(=O)(=O)Nc1cc(-c2cccc(N)c2)sc1C(=O)O [Compound 164, 5-(3-AMINO-PHENYL)-3-(TOLUENE-2-SULFONYLAMINO)-THIOPHENE-2-CARBOXYLIC ACID] | 5 to 20 µM
C/C=C/C(=O)N(CC)c1cc(-c2ccccc2)sc1C(=O)O [Compound 394, 3-(BUT-2-ENOYL-ETHYL-AMINO)-5- PHENYL-THIOPHENE-2-CARBOXYLIC ACID] | 5 to 20 µM
CC(C)N(C(=O)c1ccc(Cl)cc1Cl)c1cc(-c2ccc([S+](C)[O-])cc2)sc1C(=O)O (stereo not drawn) [Compound 374, 3-[(2,4-DICHLORO-BENZOYL)- ISOPROPYL-AMINO]-5-(4- METHANESULFINYL-PHENYL)- THIOPHENE-2-CARBOXYLIC ACID] | < 5 µM
CCCN(C(=O)c1ccc(C)cc1)c1cc(-c2cccc(CCC(=O)O)c2)sc1C(=O)O [Compound 325, 5-[3-(2-CARBOXY-ETHYL)-PHENYL]-3-[(4- METHYL-BENZOYL)-PROPYL-AMINO]- THIOPHENE-2-CARBOXYLIC ACID] | 5 to 20 µM
Cc1ccc(C(=O)N(C)c2cc(-c3ccccc3F)sc2C(=O)O)cc1 [Compound 266, 5-(2-FLUORO-PHENYL)-3-[METHYL-(4-METHYL-BENZOYL)-AMINO]-THIOPHENE-2-CARBOXYLIC ACID] | < 5 µM
Cc1cccc(C)c1S(=O)(=O)Nc1cc(-c2ccccc2)sc1C(=O)O [Compound 285, 3-(2,6-DIMETHYL-BENZENESULFONYLAMINO)-5-PHENYL-THIOPHENE-2-CARBOXYLIC ACID] | < 5 µM
Cc1ccc(C(=O)N(Cc2ccccc2Cl)c2cc(-c3ccccc3)sc2C(=O)O)cc1 [Compound 345, 3-[(2-CHLORO-BENZYL)-(4-METHYL- BENZOYL)-AMINO]-5-PHENYL- THIOPHENE-2-CARBOXYLIC ACID] | < 5 µM
Cc1ccccc1S(=O)(=O)Nc1cc(-c2ccc(Cl)s2)sc1C(=O)O [Compound 57, 5′-CHLORO-4-(TOLUENE-2-SULFONYLAMINO)-[2,2′]BITHIOPHENYL-5-CARBOXYLIC ACID] | < 5 µM
O=C(O)c1sc(-c2ccccc2)cc1NS(=O)(=O)c1c(F)cc(F)cc1F [Compound 151, 5-PHENYL-3-(2,4,6-TRIFLUORO-BENZENESULFONYLAMINO)-THIOPHENE-2-CARBOXYLIC ACID] | < 5 µM
C#Cc1cc(NS(=O)(=O)c2ccccc2C)c(C(=O)O)s1 [Compound 80, 5-ETHYNYL-3-(TOLUENE-2-SULFONYLAMINO)-THIOPHENE-2-CARBOXYLIC ACID] | 5 to 20 µM
Cc1ccc(C(=O)N(Cc2ccc(F)cc2F)c2cc(-c3ccccc3)sc2C(=O)O)cc1 [Compound 336, 3-[(2,4-DIFLUORO-BENZYL)-(4-METHYL- BENZOYL)-AMINO]-5-PHENYL- THIOPHENE-2-CARBOXYLIC ACID] | < 5 µM
COc1cccc(-c2cc(NS(=O)(=O)c3ccccc3C)c(C(=O)O)s2)c1 [Compound 123, 5-(3-METHOXY-PHENYL)-3-(TOLUENE-2-SULFONYLAMINO)-THIOPHENE-2-CARBOXYLIC ACID] | < 5 µM
CC1CCC(C(=O)N(c2cc(-c3cccc(C(F)(F)F)c3)sc2C(=O)O)C(C)C)CC1 (stereo not drawn) [Compound 381, 3-[ISOPROPYL-(4-METHYL- CYCLOHEXANECARBONYL)-AMINO]-5-(3- TRIFLUOROMETHYL-PHENYL)- THIOPHENE-2-CARBOXYLIC ACID] | < 5 µM
O=C(O)c1sc(-c2ccccc2)cc1NS(=O)(=O)c1cc(F)c(Br)cc1F [Compound 138, 3-(4-BROMO-2,5-DIFLUORO-BENZENESULFONYLAMINO)-5-PHENYL-THIOPHENE-2-CARBOXYLIC ACID] | < 5 µM
